Measured values reported in publication PMC8540097, “Novel Oleanolic Acid-Tryptamine and -Fluorotryptamine Amides: From Adaptogens to Agents Targeting In Vitro Cell Apoptosis” (Plants, 2021).
Several values for one entry are separate records, joined by “and”; a condition that tells them apart may be missing. Equal values may be shown once. Read-outs that look alike come from different tables or passages of the source.

Key:
[1] = system: G-361 (malignant melanoma); assay: Cytotoxicity screening test, G-361 cells (resazurin, 72 h); type: cell-based, human
Method: (§1) The screening human cancer cell lines used in this investigation were CEM (T-lymphoblastic leukemia), MCF7 (breast carcinoma), HeLa (cervical carcinoma) and G-361 (malignant melanoma) from the European Collection of Authenticated Cell Cultures (Salisbury, UK). Human foreskin fibroblasts (BJ) were used as reference cells, and they were a kind gift from Prof. Bartek from Danish Cancer Society Center (Copenhagen, Denmark). Cells were cultured in DMEM (Dulbecco’s Modified Eagle Medium) or in RPMI 1640 medium (CEM). Media used were supplemented with 10% fetal or 20% (CEM) bovine serum, L-glutamine (2 mM), and 1% penicillin-streptomycin mixture (all from Sigma, MO, USA). The cell lines were maintained under standard cell culture conditions at 37 °C and 5% CO2 in a humid environment. Cells were subcultured twice or three times a week using the standard trypsinization procedure. A description of the experimental procedure used in the cytotoxicity screening tests was already published. The cell viability was measured after 72 h using resazurin (Sigma, St. Louis, MO, USA).

MCF7 (breast carcinoma) = assay: Cytotoxicity screening test, MCF7 cells (resazurin, 72 h); type: cell-based, human
Method: as §1

[2] = Cytotoxicity screening test, BJ reference fibroblasts (resazurin, 72 h); type: cell-based; conditions: human, BJ foreskin fibroblasts (normal reference cells)
Method: as §1

[3] = system: HeLa (cervical carcinoma); assay: Cytotoxicity screening test, HeLa cells (resazurin, 72 h); type: cell-based, human
Method: as §1

[4] = system: CEM (T-lymphoblastic leukemia); assay: Cytotoxicity screening test, CEM cells (resazurin, 72 h); type: cell-based; conditions: Homo sapiens, CCRF-CEM
Method: as §1

[5] = system: caspase-3/7 in HeLa cells; assay: Activity of caspase-3/7 in HeLa cells; type: cell-based, human; conditions: 24 h, c = 30 µM, versus control
Method: (§2) A flow cytometric analysis, SDS–polyacrylamide gel electrophoresis and immunoblotting, and activities of caspase-3/7 were used to detect apoptosis in cervical carcinoma cells (HeLa) and malignant melanoma cells (G-361) treated for 24 h with 3a–3c (c = 3, 10 and 30 µM). The DNA content of HeLa or G-361 treated with 3a–3c for 24 h were analyzed using flow cytometry. Cells (HeLa and G-361), treated with the same concentrations of compounds for 24 h, were analyzed using electrophoresis and Western blotting, and the activity of caspase-3/7 by the standard methods. All experimental details of these methods were described in our recent paper.
Figure 3 Activity of caspase-3/7. Activity of caspase-3/7 after 24 h treatment with 3a–3c (3, 10 and 30 µM) in HeLa cells. The bars 0 are control untreated cells, the bars 0+ are control cells with DMSO. The experiment was repeated at least twice in duplicates. All data were analyzed by statistical software. Significance is indicated with an asterisk (*) (p ˂ 0.05).

[6] = system: malignant melanoma cells (G-361); assay: Flow cytometric analysis of cell cycle and apoptosis, G-361 cells; type: cell-based, human; conditions: G-361, 24 h
Method: as §2
3. Apoptosis in human cancer cells.
A detailed description of investigation of apoptosis in the HeLa and G-361 cancer cells is given in the main text of this paper. Because the results achieved with the G-361 cancer cells appeared to be less pronounced than those achieved with the HeLa cells, Figures S1A, S1B, S2 and S3 showing the results with G-361 cells are presented in the Supplementary material.
Figure S1A and S1B. Flow cytometric analysis of cell cycle (A) and apoptosis (B) of human malignant melanoma cells (G-361) after 24 h with 3a–3c (3, 10 and 30 µM). The bars 0 means control untreated cells, the bars 0+ means control with DMSO. Error bars are omitted for graph clarity. Experiment was repeated at least twice in duplicates.
Figure S1A. Flow cytometric analysis of cell cycle of G-361 cancer cells.
(1 picture or pasted object on this page, not shown here)

[7] = system: cervical carcinoma cells (HeLa); assay: Flow cytometric analysis of cell cycle and apoptosis, HeLa cells; type: cell-based, human; conditions: 24 h
Method: as §2
Figure 1 Flow cytometric analysis of cell cycle of HeLa cancer cells (A) and apoptosis (B). Flow cytometric analysis of cell cycle (A) and apoptosis (B) of human cervical carcinoma cells (HeLa) after 24 h with 3a–3c (3, 10 and 30 µM). The bars 0 means control untreated cells, the bars 0+ means control with DMSO. The experiment was repeated at least twice in triplicates. All data were analyzed by statistical software. Significance is indicated with an asterisk (*) (p ˂ 0.05).

[8] = Homo sapiens, G-361, 72 h, resazurin, read-out: Cytotoxicity IC50, G-361
[9] = individual runs, Table S1, read-out: Cytotoxicity IC50, G361, single repeated screening runs (italics)
[10] = Homo sapiens, MCF7, 72 h, resazurin, read-out: Cytotoxicity IC50, MCF7
[11] = Homo sapiens, HeLa, resazurin, read-out: Cytotoxicity IC50, HeLa
[12] = individual runs, Table S1, read-out: Cytotoxicity IC50, HeLa, single repeated screening runs (italics)
[13] = individual runs, Table S1, read-out: Cytotoxicity IC50, MCF7, single repeated screening runs (italics)
[14] = Homo sapiens, HeLa, individual runs, Table S1, read-out: Cytotoxicity IC50, HeLa, single repeated screening runs (italics)
[15] = Homo sapiens, G-361, resazurin, read-out: Cytotoxicity IC50, G-361
[16] = Homo sapiens, MCF7, resazurin, read-out: Cytotoxicity IC50, MCF7

Structure (SMILES) | IC50 [1, 8] | IC50 [1, 9] | IC50 (MCF7 (breast carcinoma); [10]) | IC50 at 72 h [2] | IC50 [3, 11] | IC50 [3, 12] | IC50 [4] | Effect on cell cycle ([7]; c = 30 µM) | melting point | IC50 [3, 14] | other results
CC1(C)CCC2(C(=O)NCCc3c[nH]c4ccccc34)CCC3(C)C(=CCC4C5(C)CCC(O)C(C)(C)C5CCC43C)C2C1 (stereo not drawn) [Compound 4a] | > 50 µM | > 50 µM (2×) and 19.7 µM | > 50 µM | > 50 µM | > 50 µM | 20.4 µM and > 50 µM (2×) | > 50 µM |  |  |  | 
CC(=O)O[C@H]1CC[C@]2(C)[C@H]3CC=C4[C@@H]5CC(C)(C)CC[C@]5(C(=O)NCCc5c[nH]c6cc(F)ccc56)CC[C@@]4(C)[C@]3(C)CC[C@H]2C1(C)C [Compound 3b] | 15.9 ± 6.6 µM | > 50 µM and 23 µM and 9.9 µM and 14.9 µM | > 50 µM | > 50 µM | 6.7 ± 1.4 µM | 7.7 µM and 13.1 µM and 5.7 µM | > 50 µM | increased the number of cells in the G2/M phase | 139 to 140 °C |  | Induction of caspase-3/7 activity [5]: up to 4.6 times; Level of apoptotic cells in subG1 phase [6]: increased the level of apoptotic cells; Effect on cell cycle ([6]; c = 10 µM): increase of accumulation of the S-phase cells; Induction of apoptosis (apoptotic cells) ([7]; c = 10 µM): up to 6.4%
CC(=O)O[C@H]1CC[C@]2(C)[C@H]3CC=C4[C@@H]5CC(C)(C)CC[C@]5(C(=O)NCCc5c[nH]c6ccc(F)cc56)CC[C@@]4(C)[C@]3(C)CC[C@H]2C1(C)C [Compound 3c] | > 50 µM |  | > 50 µM | > 50 µM | 12.2 ± 4.7 µM | 10.4 µM and 17.6 µM and 8.7 µM | > 50 µM | increased the number of cells in the G2/M phase | 138 to 139 °C |  | Effect on cell cycle ([6]; c = 3 µM): increase of accumulation of the S-phase cells; Induction of apoptosis (apoptotic cells) ([7]; c = 30 µM): 2.7%
CC1(C)CCC2(C(=O)NCCc3c[nH]c4ccc(F)cc34)CCC3(C)C(=CCC4C5(C)CCC(O)C(C)(C)C5CCC43C)C2C1 (stereo not drawn) [Compound 4c] | > 50 µM |  | 13.5 ± 3.3 µM | > 50 µM | 20.3 ± 7.6 µM | 29 µM and 17.1 µM | > 50 µM |  | 147 to 148 °C | 14.9 µM | IC50 (MCF7 (breast carcinoma); [13]): 31.8 µM and > 50 µM and 11.2 µM and 15.8 µM
CC(=O)O[C@H]1CC[C@]2(C)[C@H]3CC=C4[C@@H]5CC(C)(C)CC[C@]5(C(=O)O)CC[C@@]4(C)[C@]3(C)CC[C@H]2C1(C)C [Compound 2, (3β)-3-(acetyloxy)olean-12-en-28-oic acid] |  |  |  | > 50 µM | > 50 µM |  | > 50 µM |  |  |  | IC50 [1, 15]: > 50 µM; IC50 (MCF7 (breast carcinoma); [16]): > 50 µM
CC1(C)CCC2(C(=O)NCCc3c[nH]c4cc(F)ccc34)CCC3(C)C(=CCC4C5(C)CCC(O)C(C)(C)C5CCC43C)C2C1 (stereo not drawn) [Compound 4b] | > 50 µM |  | > 50 µM | > 50 µM | 27.9 ± 0.8 µM | 28.5 µM and > 50 µM | > 50 µM |  | 149 to 150 °C | 27.3 µM | IC50 (MCF7 (breast carcinoma); Homo sapiens, MCF7, 72 h, individual runs, Table S1, read-out: Cytotoxicity IC50, MCF7, single repeated screening runs (italics)): 44.5 µM; IC50 (MCF7 (breast carcinoma); [13]): > 50 µM
NCCc1c[nH]c2ccccc12 [tryptamine] |  |  |  | > 50 µM | > 50 µM |  | > 50 µM |  |  |  | IC50 [1, 15]: > 50 µM; IC50 (MCF7 (breast carcinoma); [16]): > 50 µM
CC(=O)O[C@H]1CC[C@]2(C)[C@H]3CC=C4[C@@H]5CC(C)(C)CC[C@]5(C(=O)NCCc5c[nH]c6ccccc56)CC[C@@]4(C)[C@]3(C)CC[C@H]2C1(C)C [Compound 3a, Tryptamine amide of (3β)-3-(acetyloxy)olean-12-en-28-oic acid] | 9 ± 0.4 µM | 9.2 µM | > 50 µM | > 50 µM | 8.7 ± 0.4 µM | 9 µM | > 50 µM | cell cycle arrest in the G2/M phase |  | 8.4 µM | Induction of caspase-3/7 activity [5]: up to 4 times; IC50 ([1]; Homo sapiens, G-361, 72 h, individual runs, Table S1, read-out: Cytotoxicity IC50, G361, single repeated screening runs (italics)): 8.7 µM; Level of apoptotic cells in subG1 phase [6]: up to 7.7%; Effect on cell cycle ([6]; c = 10 µM): increase of accumulation of the S-phase cells; Induction of apoptosis (apoptotic cells) ([7]; c = 30 µM): 4%
CC1(C)CC[C@]2(C(=O)O)CC[C@]3(C)C(=CC[C@@H]4[C@@]5(C)CC[C@H](O)C(C)(C)[C@@H]5CC[C@]43C)[C@@H]2C1 [Compound 1, (3β)-3-hydroxyolean-12-en-28-oic acid, reference compound] | > 50 µM |  | > 50 µM | > 50 µM | > 50 µM |  | > 50 µM |  |  |  | 
